Experimental data: patent US11667651B2, “Aminopyridine derivatives as phosphatidylinositol phosphate kinase inhibitors” (HiberCell, Inc., priority 2017, dated 2023)

Columns and labels:
Format in all cases: biochemical
[1] = target: T1, PIP4K2B (Homo sapiens, UniProt P78356); assay: Trans-FI P kinase assay PIP4K2B (Table 4); settings: compounds listed under IC50 bins; read-out: Trans-FI P kinase assays: PIP4K2B IC50
T1 construct: made in house; host or cells: E. coli
T1 sequence (P78356 1-416): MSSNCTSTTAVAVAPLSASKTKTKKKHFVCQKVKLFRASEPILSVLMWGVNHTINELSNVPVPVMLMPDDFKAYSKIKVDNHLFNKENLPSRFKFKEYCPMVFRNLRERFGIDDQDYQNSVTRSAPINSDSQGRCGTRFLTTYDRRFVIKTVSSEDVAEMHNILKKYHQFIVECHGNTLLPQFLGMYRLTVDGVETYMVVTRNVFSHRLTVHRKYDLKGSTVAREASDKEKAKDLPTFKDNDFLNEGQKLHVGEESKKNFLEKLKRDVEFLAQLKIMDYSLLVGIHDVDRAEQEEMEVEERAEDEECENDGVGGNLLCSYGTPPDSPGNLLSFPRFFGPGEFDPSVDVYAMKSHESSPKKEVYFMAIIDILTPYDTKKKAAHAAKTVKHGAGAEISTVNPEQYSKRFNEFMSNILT
In short: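 Transcreener FI detection (Ex 584/Em 623) of GDP, converted via calibration curve, gives IC50 from residual activity versus log concentration (highest 4.8 μM). Reaction: 80 μM PI5P plus DOPE carrier, 100 μM GTP, 5 nM GST-tagged enzyme, pH 7.3 HEPES with MgCl2 and 5% DMSO, 2 h after 1 h enzyme-compound preincubation at 27° C.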

[2] = target: T2, PIP4K2A (Homo sapiens, UniProt P48426); assay: Kinase Assay PIP4K2 A (Table 2); parameters: 4 nM PIP4K2A (full length protein, SignalChem); purchased SignalChem; settings: compounds listed under IC50 bins
T2 sequence (P48426 1-406): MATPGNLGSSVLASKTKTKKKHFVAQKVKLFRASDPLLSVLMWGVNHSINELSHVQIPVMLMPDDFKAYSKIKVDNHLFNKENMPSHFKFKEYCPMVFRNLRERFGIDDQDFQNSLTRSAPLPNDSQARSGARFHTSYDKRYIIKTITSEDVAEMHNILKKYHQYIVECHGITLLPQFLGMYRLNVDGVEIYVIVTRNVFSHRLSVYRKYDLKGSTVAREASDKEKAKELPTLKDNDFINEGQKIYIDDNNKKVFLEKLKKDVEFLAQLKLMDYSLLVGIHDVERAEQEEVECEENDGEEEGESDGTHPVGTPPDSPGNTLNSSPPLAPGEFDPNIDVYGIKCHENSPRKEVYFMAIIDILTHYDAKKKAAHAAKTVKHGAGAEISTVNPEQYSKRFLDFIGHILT
In short: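 Full-length PIP4K2A (4 nM in the added mix, with 100 μM PI(5)P diC8) pre-incubated 15 min at RT with compounds (10-point, 3-fold series) in 20 mM MOPS pH 7.2, 25 mM MgCl2, 0.005% Tween 20. ATP added from a 60 μM solution, 1 h at RT; ADP-Glo luminescence, IC50 fitted from % inhibition versus DMSO.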

[3] = target: T2, PIP4K2A; assay: ADP-glo kinase assay PIP4K 2A (Table 3); parameters: made in house; host or cells: E. coli; settings: compounds listed under IC50 bins
In short: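 Full-length PIP4K2A (4 nM in the mix) with 100 μM PI(5)P diC8 pre-incubated 15 min with compound in MOPS pH 7.2, 25 mM MgCl2; ATP added (60 μM solution), 1 h at RT. ADP formed read by ADP-Glo luminescence; 10-point curves versus DMSO controls fitted to IC50.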

Row | IC50 [1] [nM] | IC50 [2] [nM] | IC50 [3] [nM] | Compound
1 | 10 to 100 | 10 to 100 | 100 to 1000 | CC(C)S(=O)(=O)N1CCOc2ncc(Nc3ccc(-c4ccc(N5CCCC5=O)cc4)cn3)cc21 [Example 153, 1-(4-(6-((1-(isopropylsulfonyl)-2,3-dihydro-1H-pyrido[2,3-b][1,4]oxazin-7-yl)amino)pyridin-3-yl)phenyl)pyrrolidin-2-one]
2 | 10 to 100 | 10 to 100 | 100 to 1000 | CN(C)C(=O)c1ccc(-c2ccc(Nc3cnc4c(c3)CCCO4)nc2)cc1 [Example 58, 4-(6-((3,4-dihydro-2H-pyrano[2,3-b]pyridin-6-yl)amino)pyridin-3-yl)-N,N-dimethylbenzamide]
3 | 10 to 100 | 10 to 100 | 100 to 1000 | CC(=O)N1CCN(C)c2ncc(Nc3ccc(-c4ccc(C(=O)N(C)C)cc4)cn3)cc21 [Example 59, 4-(6-((1-acetyl-4-methyl-1,2,3,4-tetrahydropyrido[2,3-b]pyrazin-7-yl)amino)pyridin-3-yl)-N,N-dimethylbenzamide]
4 | 10 to 100 | 1 to 10 | 1 to 10 | CC1(C)C[C@H]2COc3ncc(Nc4ccc(-c5ccc(N6CCCC6=O)c(F)c5)cn4)cc3N2C1=O [Example 258, (S)-2-((5-(3-fluoro-4-(2-oxopyrrolidin-1-yl)phenyl)pyridin-2-yl)amino)-8,8-dimethyl-6,6a,7,8-tetrahydro-9H-pyrido[2,3-b]pyrrolo[1,2-d][1,4]oxazin-9-one]
5 | 10 to 100 | ≤ 1 | 1 to 10 | CN(C)C/C=C/C(=O)NCC(=O)Nc1cccc(CN2CCN(c3cncc(Nc4ccc(-c5ccc(C(=O)N(C)C)cc5)cn4)c3)C2=O)c1 [Example 227, (E)-4-(6-((5-(3-(3-(2-(4-(dimethylamino)but-2-enamido)acetamido)benzyl)-2-oxoimidazolidin-1-yl)pyridin-3-yl)amino)pyridin-3-yl)-N,N-dimethylbenzamide]
6 | 10 to 100 | 10 to 100 | 10 to 100 | CN(C)C(=O)c1ccc(-c2ccc(Nc3cncc(NS(C)(=O)=O)c3)nc2)cc1 [Example 127, N,N-dimethyl-4-(6-((5-(methylsulfonamido)pyridin-3-yl)amino)pyridin-3-yl)benzamide]
7 | 10 to 100 | 1 to 10 | 10 to 100 | CC(C)C(=O)N1CCOc2ncc(Nc3ccc(-c4ccc(N5CCCC5=O)cc4)cn3)cc21 [Example 152, 1-(4-(6-((1-isobutyryl-2,3-dihydro-1H-pyrido[2,3-b][1,4]oxazin-7-yl)amino)pyridin-3-yl)phenyl)pyrrolidin-2-one]
8 | 10 to 100 | 10 to 100 | 10 to 100 | CN(C)C(=O)c1ccc(-c2ccc(Nc3cncc(NC(=O)c4ccc(N)cc4)c3)nc2)cc1 [Example 116, 4-(6-((5-(4-aminobenzamido)pyridin-3-yl)amino)pyridin-3-yl)-N,N-dimethylbenzamide]
9 | 10 to 100 | 1 to 10 | 1 to 10 | CN(C)C(=O)c1ccc(-c2ccc(Nc3cncc(N4CCN(Cc5cccc(NC(=O)CCc6cccc(N)c6)c5)C4=O)c3)nc2)cc1 [Example 224, 4-(6-((5-(3-(3-(3-(3-aminophenyl)propanamido)benzyl)-2-oxoimidazolidin-1-yl)pyridin-3-yl)amino)pyridin-3-yl)-N,N-dimethylbenzamide]
10 | 10 to 100 | 10 to 100 | 10 to 100 | CN(C)C(=O)c1ccc(-c2ccc(Nc3cncc(NC(=O)CCc4ccccc4)c3)nc2)cc1 [Example 137, N,N-dimethyl-4-(6-((5-(3-phenylpropanamido)pyridin-3-yl)amino)pyridin-3-yl)benzamide]
11 | 10 to 100 | 10 to 100 | 10 to 100 | C[C@@H](c1ccccc1)N1CCN(c2cncc(Nc3ccc(-c4ccc(C(=O)N(C)C)cc4)cn3)c2)C1=O [Example 80, (S)—N,N-dimethyl-4-(6-((5-(2-oxo-3-(1-phenylethyl)imidazolidin-1-yl)pyridin-3-yl)amino)pyridin-3-yl)benzamide]
12 | 10 to 100 | 1 to 10 | 10 to 100 | COc1cncc(C(=O)Nc2cncc(Nc3ccc(-c4ccc(N5CCCC5=O)cc4)cn3)c2)c1 [Example 239, 5-methoxy-N-(5-((5-(4-(2-oxopyrrolidin-1-yl)phenyl)pyridin-2-yl)amino)pyridin-3-yl)nicotinamide]
13 | 1 to 10 | ≤ 1 | 1 to 10 | CC(C)c1cc(Nc2cnc3c(c2)N2C(=O)CC[C@H]2CO3)ncc1-c1ccc(N2CCCC2=O)cc1 [Example 177, (S)-2-((4-isopropyl-5-(4-(2-oxopyrrolidin-1-yl)phenyl)pyridin-2-yl)amino)-6,6a,7,8-tetrahydro-9H-pyrido[2,3-b]pyrrolo[1,2-d][1,4]oxazin-9-one]
14 | 10 to 100 | 1 to 10 | 10 to 100 | CN(C)C/C=C/C(=O)Nc1cccc(CCC(=O)Nc2cccc(CN3CCN(c4cncc(Nc5ccc(-c6ccc(C(=O)N(C)C)cc6)cn5)c4)C3=O)c2)c1 [Example 225, (E)-4-(6-((5-(3-(3-(3-(3-(4-(dimethylamino)but-2-enamido)phenyl)propanamido)benzyl)-2-oxoimidazolidin-1-yl)pyridin-3-yl)amino)pyridin-3-yl)-N,N-dimethylbenzamide]
15 | 10 to 100 | 1 to 10 | 10 to 100 | CN(C)C(=O)c1ccc(-c2ccc(Nc3cncc(NC(=O)CCc4cccc(N)c4)c3)nc2)cc1 [Example 102, 4-(6-((5-(3-(3-aminophenyl)propanamido)pyridin-3-yl)amino)pyridin-3-yl)-N,N-dimethylbenzamide]
